Measurements reported in US8741836B2, “Polypeptides” (Novo Nordisk A/S, priority 2011, dated 2014).
Where two headings read alike, the source gives them in different places. Starred links: 1 amine or outer side, 2 acyl side, 3 side chain; linkers in the order of their positions; H or OH if unused. Positions of bridges follow the written chain, without caps; N, C: chain ends. Residues, ends and D or L forms follow the SMILES beside them. Groups on a side chain read outwards from the residue. *: point of attachment. C18 diacid = O=C(O)CCCCCCCCCCCCCCCCC(=O)*; γGlu = O=C(O)[C@H](CCC(=O)[*:2])N[*:1]; AEEA = NCCOCCOCC(=O)O

Tests used:
[1] = target: T1, rat calcitonin (a) receptor (Rattus norvegicus, UniProt P32214); assay: Assay (II)b functional assay, rat calcitonin receptor (cAMP FlashPlate); assay type: cell-based; settings: Table 11, read-out: CTa receptor rat EC50
T1 construct: expressed in transfected cells; host or cells: BHK tk'ts 13 (transient, FuGENE 6)
T1 sequence (P32214 25-479 isoform P32214-2 limits assumed): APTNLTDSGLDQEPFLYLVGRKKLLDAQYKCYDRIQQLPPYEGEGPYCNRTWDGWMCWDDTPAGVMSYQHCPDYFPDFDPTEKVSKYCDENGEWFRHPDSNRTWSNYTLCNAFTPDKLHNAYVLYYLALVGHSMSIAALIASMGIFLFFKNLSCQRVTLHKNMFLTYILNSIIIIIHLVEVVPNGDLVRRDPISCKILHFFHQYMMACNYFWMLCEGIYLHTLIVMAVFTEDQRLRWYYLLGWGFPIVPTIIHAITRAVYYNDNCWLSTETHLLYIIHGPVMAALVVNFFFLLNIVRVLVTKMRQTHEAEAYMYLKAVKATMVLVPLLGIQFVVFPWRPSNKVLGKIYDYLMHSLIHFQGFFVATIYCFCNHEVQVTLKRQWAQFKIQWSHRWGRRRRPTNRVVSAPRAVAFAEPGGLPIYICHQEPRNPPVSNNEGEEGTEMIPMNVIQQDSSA
Text: (§1) Assay (II)b—Rat Calcitonin and Rat Amylin Receptor Assays
(§2) Activation of calcitonin and amylin (coexpression of calcitonin receptor and receptor activity modifying proteins (RAMP)) receptors lead to increased intracellular concentrations of cAMP. In order to quantify the cAMP levels in transiently transfected cells the Adenylyl Cyclase Activation FlashPlate® Assay from Perkin Elmer was used. The basic principle of the FlashPlate® Assay is a competition between radioactive and non-radioactive cAMP generated by the cells for a fixed number of binding sites.
(§3) Construction of Rat Calcitonin(a)- and Rat Amylin 3(a)-Receptor Cells.
(§4) BHK tk'ts 13 cells were transiently transfected with either rat calcitonin (a) receptor or amylin 3 (a) receptor (rat calcitonin(a) receptor+rat RAMP3) using FuGENE® 6 (Roche), according to the manufacturers recommendations.
(§5) 24 hours after transient transfection the cells (rat calcitonin(a)- or rat amylin 3(a)-receptor cells) were added (100.000 cells/well) to the 96 well FlashPlates® with samples or standard in FlashPlate stimulation buffer with IBMX and incubated for 30 min. Detection mix was created according to manufacturers protocol and scintillation measured after 3 h of incubation on TopCounter™ (Packard).

[2] = Assay (IV) determination of solubility; assay type: physicochemical
Method: Assay (IV)—Determination of Solubility
The polypeptide was dissolved in water at −500 nmol/ml and mixed 1:1 with a series of buffers (100 mM glycylglycine pH 3.0, 100 mM glycylglycine pH 4.0, 100 mM glycylglycine pH 5.0, 100 mM bistrispropane pH 6.0, 100 mM bistrispropane pH 6.5, 100 mM bistrispropane pH 7.0, 100 mM bistrispropane pH 7.5, 100 mM bistrispropane pH 8.0). After 18 hours at room temperature the samples were centrifuged and the polypeptide concentration determined by HPLC.

[3] = target: T2, rat amylin 3(a) receptor (rat calcitonin(a) receptor+rat RAMP3) (Rattus norvegicus, UniProt P32214+Q9JJ73); assay: Assay (II)b functional assay, rat amylin receptor (cAMP FlashPlate); assay type: cell-based; settings: Table 11
T2 construct: expressed in transfected cells; host or cells: BHK tk'ts 13 (transient, FuGENE 6)
T2 sequence (P32214 25-479 isoform P32214-2 limits assumed): T1 sequence (P32214 25-479 isoform P32214-2 limits assumed)
T2 sequence (Q9JJ73 24-147 partner limits assumed): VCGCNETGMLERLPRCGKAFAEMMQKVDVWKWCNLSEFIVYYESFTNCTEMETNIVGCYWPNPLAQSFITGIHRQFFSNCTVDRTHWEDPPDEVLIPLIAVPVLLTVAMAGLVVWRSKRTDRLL
Text: as §1, §2, §3, §4, §5

- EC50 [1]: 2.06 nM
- solubility at 18 h ([2]; bistrispropane buffer, pH 6.5, read-out: Solubility): > 200 µM
- solubility at 18 h ([2]; bistrispropane buffer, pH 7.5, read-out: Solubility pH 7.5): > 200 µM
- solubility at 18 h ([2]; bistrispropane buffer, pH 6.0, read-out: Solubility): > 200 µM
- solubility at 18 h ([2]; bistrispropane buffer, pH 7.0, read-out: Solubility pH 7.0): > 200 µM
- solubility at 18 h ([2]; bistrispropane buffer, pH 8.0, read-out: Solubility): > 200 µM
- solubility at 18 h ([2]; glycylglycine buffer, pH 3.0, read-out: Solubility): > 200 µM
- solubility at 18 h ([2]; glycylglycine buffer, pH 4.0, read-out: Solubility pH 4.0): > 200 µM
- solubility at 18 h ([2]; glycylglycine buffer, pH 5.0, read-out: Solubility): > 200 µM
- solubility at 18 h ([2]; pH 4.0, read-out: Solubility): >200 µM
- solubility at 18 h ([2]; pH 7.0, read-out: Solubility): >200 µM
- solubility at 18 h ([2]; pH 7.5, read-out: Solubility): >200 µM
- EC50 [3]: 0.504 nM
SMILES: CC[C@H](C)[C@H](NC(=O)[C@@H]1CCCN1C(=O)CNC(=O)[C@H](Cc1ccccc1)NC(=O)[C@H](CC(N)=O)NC(=O)[C@H](CCCCNC(=O)COCCOCCNC(=O)COCCOCCNC(=O)CC[C@H](NC(=O)CCCCCCCCCCCCCCCCC(=O)O)C(=O)O)NC(=O)[C@H](CO)NC(=O)[C@H](CO)NC(=O)[C@H](Cc1c[nH]cn1)NC(=O)[C@H](Cc1c[nH]cn1)NC(=O)[C@H](CC(C)C)NC(=O)[C@H](Cc1ccccc1)NC(=O)[C@H](CCC(=O)O)NC(=O)[C@H](C)NC(=O)[C@H](CC(C)C)NC(=O)[C@H](CCCNC(=N)N)NC(=O)[C@H](CCC(N)=O)NC(=O)[C@@H](NC(=O)[C@H](C)NC(=O)[C@@H]1CSSC[C@H](NC(=O)[C@@H](N)CCCCN)C(=O)N[C@@H](CC(N)=O)C(=O)N[C@@H]([C@@H](C)O)C(=O)N[C@@H](C)C(=O)N[C@@H]([C@@H](C)O)C(=O)N1)[C@@H](C)O)C(=O)N[C@@H](CC(C)C)C(=O)N1CCC[C@H]1C(=O)N1CCC[C@H]1C(=O)N[C@H](C(=O)N[C@@H](CC(N)=O)C(=O)N[C@H](C(=O)NCC(=O)N[C@@H](CO)C(=O)N[C@@H](CCC(=O)O)C(=O)N[C@H](C(=O)N[C@@H](Cc1ccc(O)cc1)C(N)=O)[C@@H](C)O)C(C)C)[C@@H](C)O [Example 74, N-epsilon21-[2-(2-{2-[2-(2-{2-[(S)-4-Carboxy-4-(17-carboxyheptadecanoylamino)butyrylamino]ethoxy}ethoxy)acetylamino]ethoxy}ethoxy)acetyl]-[Glu14,His17,Lys21,Glu35]-pramlintide] (H-KCNTATCATQRLAEFLHHSSK([AEEA-AEEA-γGlu-C18 diacid])NFGPILPPTNVGSETY-NH2; disulfide 2-7 (inferred); N-terminus and C-terminus assumed)
